For one test, the system named is MCC13 cells (VN-MCC). As to the kind of experiment: qHTS cell viability (CellTiter-Glo, 72 h; primary and follow-up small molecule screen). It counts as cell-based, human. On the technique in general: Quantitative high-throughput screening tests each substance at several concentrations.
The test system of a further test is MCC26 cells (VN-MCC). The description is as above. It counts as cell-based, human.
In a further test the test system is UISO cells (VN-MCC). The description is as above. It counts as cell-based, human.
The next test concerns WAGA cells (VP-MCC). The test is described as above. Format: cell-based, human.
In a further test the test system is MKL-1 cells (VP-MCC). The description is as above. Format: cell-based, human.
A further test concerns MKL-2 cells (VP-MCC). Described as above. Format: cell-based, human.
The test system of the next test is HACAT cells. As to the kind of experiment: qHTS cell viability (CellTiter-Glo, 72 h; primary screen), control cell line. It counts as cell-based, human.
The next test deals with HEK293T cells. The test is described as above. It counts as cell-based, human.
A further test has as its system NIH-3T3 cells. The description is as above. It counts as cell-based, mouse.
Another test relates to CRL-7250 cells. Described as above. It counts as cell-based.
Test [1] has as its system MCC cell lines (WAGA, MKL-1, MKL-2, MCC13, MCC26, UISO). As to the kind of experiment: qHTS cell viability, all six MCC cell lines as a group (mean AUC, MCC.avg). Format: cell-based, human.
The test system of test [2] is VP-MCC cell lines (WAGA, MKL-1, MKL-2). The experiment in a line: qHTS cell viability, VP-MCC cell lines as a group (mean AUC, VP.MCC.avg). Particulars: for VP-MCC_Avg_AUC: mean AUC of VP-MCC cell lines. Format: cell-based, human.
Test [3] concerns VN-MCC cell lines (MCC13, MCC26, UISO). As to the kind of experiment: qHTS cell viability, VN-MCC cell lines as a group (mean AUC, VN.MCC.avg). It counts as cell-based, human. The note with it: for VN-MCC_Avg_AUC: mean AUC of VN-MCC cell lines.
The subject of test [4] is control cell lines (HACAT, HEK293T, CRL-7250, NIH-3T3). As to the kind of experiment: qHTS cell viability, control cell lines as a group (mean AUC, Control.avg). It counts as cell-based. The note with it: mean AUC of control cell lines.
For test [5], the system named is six MCC cell lines and four control cell lines. As to the kind of experiment: qHTS cell viability, all 10 cell lines screened. It counts as cell-based.
The mark [6] stands for this setting: MIPE library, 11-point DRC, sheet S2E.
Setting [7] is: MIPE library, 11-point DRC, control cell line, sheet S2E.
[8] abbreviates: MIPE library, mean AUC of six MCC cell lines, sheet S2E.
The mark [9] stands for this setting: MIPE library, Control AUC minus VP-MCC AUC (therapeutic window), sheet S2E.
[10] abbreviates: MIPE library, Control AUC minus VN-MCC AUC (therapeutic window), sheet S2E.
[11] abbreviates: MIPE library, Control AUC minus MCC AUC (therapeutic window), sheet S2E.

Structures can show the parent of a compound that is named as a salt.

Turning to `CN(C)CC[C@H](CSc1ccccc1)Nc1ccc(S(=O)(=O)NC(=O)c2ccc(N3CCN(Cc4ccccc4-c4ccc(Cl)cc4)CC3)cc2)cc1[N+](=O)[O-]` [ABT-737], the MCC13_AUC with MCC13 cells (VN-MCC) (setting [6]) turned out to be 474.092. The compound further returned an MCC26_AUC in the test on MCC26 cells (VN-MCC) (setting [6]) of 472.052. For the same compound, the UISO_AUC in the test on UISO cells (VN-MCC) (setting [6]) turned out to be 486.905. Further, the WAGA_AUC with WAGA cells (VP-MCC) (setting [6]) is 285.196. Moreover, the MKL1_AUC with MKL-1 cells (VP-MCC) (setting [6]) was found to be 334.511. This compound came in with an MKL2_AUC with MKL-2 cells (VP-MCC) (setting [6]) of 288.506. Besides, in the test with HACAT cells (setting [7]), the HACAT_AUC is reported as 430.037. In the test with HEK293T cells (setting [7]), the HEK293T_AUC worked out at 444.395. This compound also showed an NIH3T3_AUC in the test with NIH-3T3 cells (setting [7]) of 431.249. The compound further showed a CRL7250_AUC with CRL-7250 cells (setting [7]) of 467.3. In addition, in test [1] (setting [8]), the MCC_Avg_AUC is 390.211. Moreover, the Control-VP-MCC in test [2] (setting [9]) amounted to 140.507. The compound further registered a VP-MCC_Avg_AUC in test [2] (MIPE library, sheet S2E) of 302.738. For the same compound, in test [3] (setting [10]), the Control-VN-MCC is -34.4381. In test [3] (MIPE library, sheet S2E), this compound showed a VN-MCC_Avg_AUC of 477.683. The compound also yielded a Control_Avg_AUC in test [4] (MIPE library, sheet S2E) of 443.245. For the same compound, the Control-MCC in test [5] (setting [11]) was found to be 53.0346.

Regarding `COCC1(CO)C(=O)C2CCN1CC2` (stereo not shown) [APR-246], in the test with MCC13 cells (VN-MCC) (setting [6]), the MCC13_AUC stood at 460.845. The compound also returned an MCC26_AUC with MCC26 cells (VN-MCC) (setting [6]) of 464.929. Further, the UISO_AUC with UISO cells (VN-MCC) (setting [6]) came out at 425.775. In addition, the WAGA_AUC in the test with WAGA cells (VP-MCC) (setting [6]) was 329.393. In the test on MKL-1 cells (VP-MCC) (setting [6]), this compound showed an MKL1_AUC of 344.8. Besides, in the test on MKL-2 cells (VP-MCC) (setting [6]), the MKL2_AUC amounted to 331.652. In addition, the HACAT_AUC in the test with HACAT cells (setting [7]) is recorded as 475.968. For the same compound, the HEK293T_AUC with HEK293T cells (setting [7]) was 390.353. Besides, the NIH3T3_AUC in the test on NIH-3T3 cells (setting [7]) is on record as 403.185. This compound also gave a CRL7250_AUC in the test with CRL-7250 cells (setting [7]) of 448.778. In test [1] (setting [8]), this compound returned an MCC_Avg_AUC of 392.899. The compound further registered a Control-VP-MCC in test [2] (setting [9]) of 94.289. The compound also displayed a VP-MCC_Avg_AUC in test [2] (MIPE library, sheet S2E) of 335.282. This compound registered a Control-VN-MCC in [3] (setting [10]) of -20.9457. The same compound came in with a VN-MCC_Avg_AUC in [3] (MIPE library, sheet S2E) of 450.517. This compound showed a Control_Avg_AUC in test [4] (MIPE library, sheet S2E) of 429.571. In addition, the Control-MCC in test [5] (setting [11]) stood at 36.6717.

`CCN(CC)CCNC(=O)c1ccc(NC(C)=O)cc1` [Acecainide hydrochloride]: the MCC13_AUC in the test on MCC13 cells (VN-MCC) (NPC library, qHTS dose-response AUC, MCC13) was found to be 428.813; in the test on MCC13 cells (VN-MCC) (area under the dose-response curve, MCC13 cells, AUC<450 = reduced viability), 428.813. In addition, the MCC26_AUC with MCC26 cells (VN-MCC) (NPC library, qHTS dose-response AUC, MCC26) was 385.871; in the test with MCC26 cells (VN-MCC) (area under the dose-response curve, MCC26 cells, AUC<450 = reduced viability) it was 385.871. Besides, the UISO_AUC is listed as 444.571 with UISO cells (VN-MCC) (NPC library, qHTS dose-response AUC, UISO) and 444.571 with UISO cells (VN-MCC) (area under the dose-response curve, UISO cells, AUC<450 = reduced viability). For the same compound, the WAGA_AUC amounted to 423.417 in the test on WAGA cells (VP-MCC) (NPC library, qHTS dose-response AUC, WAGA) and 423.417 in the test on WAGA cells (VP-MCC) (area under the dose-response curve, WAGA cells, AUC<450 = reduced viability). Also, the MKL1_AUC in the test with MKL-1 cells (VP-MCC) (NPC library, qHTS dose-response AUC, MKL1) is recorded as 419.008; in the test on MKL-1 cells (VP-MCC) ({}), 419.008. The MKL2_AUC is 429.744 in the test with MKL-2 cells (VP-MCC) (NPC library, qHTS dose-response AUC, MKL2) and 429.744 with MKL-2 cells (VP-MCC) (area under the dose-response curve, MKL-2 cells, AUC<450 = reduced viability). For the same compound, the HACAT_AUC with HACAT cells (NPC library, qHTS dose-response AUC, HACAT control) worked out at 489.271; in the test with HACAT cells (area under the dose-response curve, HACAT control cells, AUC<450 = reduced viability), 489.271. The HEK293T_AUC in the test with HEK293T cells (NPC library, qHTS dose-response AUC, HEK293T control) is 458.505; with HEK293T cells (area under the dose-response curve, HEK293T control cells, AUC<450 = reduced viability) it was 458.505. Also, the NIH3T3_AUC with NIH-3T3 cells (NPC library, qHTS dose-response AUC, NIH3T3 control) worked out at 480.581; with NIH-3T3 cells (area under the dose-response curve, NIH3T3 control cells, AUC<450 = reduced viability), 480.581. Besides, the CRL7250_AUC with CRL-7250 cells (NPC library, qHTS dose-response AUC, CRL7250 control) stood at 485.167; with CRL-7250 cells (area under the dose-response curve, CRL7250 control cells, AUC<450 = reduced viability) it was 485.167. The MCC_Avg_AUC is 421.904 in [1] (NPC library, mean AUC of all 6 MCC cell lines) and 421.904 in [1] (NPC library, mean AUC of six MCC cell lines). For the same compound, the Control-VP-MCC in test [2] (Control AUC minus VP-MCC AUC) turned out to be 54.3246; in [2] (NPC library, therapeutic window: Control avg AUC minus VP-MCC avg AUC), 54.3246. The compound also yielded a VP-MCC_Avg_AUC in test [2] (NPC library) of 424.056. Moreover, the Control-VN-MCC in [3] (Control AUC minus VN-MCC AUC) turned out to be 58.6292; in [3] (NPC library, therapeutic window: Control avg AUC minus VN-MCC avg AUC) it was 58.6293. For the same compound, the VN-MCC_Avg_AUC in test [3] (NPC library) came to 419.752. The same compound gave a Control_Avg_AUC in [4] (NPC library) of 478.381. This compound displayed a Control-MCC in [5] (NPC library, therapeutic window: Control avg AUC minus MCC avg AUC) of 56.4769.

The values above are taken from paper PMC11822212, “High-throughput screening identifies Aurora kinase B as a critical therapeutic target for Merkel cell carcinoma” (Nature Communications, 2025).
